Drawing on article PMC9151804, “Carotenoid binding in Gloeobacteria rhodopsin provides insights into divergent evolution of xanthorhodopsin types” (Communications Biology, 2022), this text covers carotenoid/retinal binding ratio and carotenoid binding for one molecule.

Holding throughout (test): co-expression in E. coli, purification, chromophore extraction and absorbance
What all share (format): binding
Common to all, as to details: all-trans-retinal-bound protein; 0.02% DDM, 150 mM NaCl, 50 mM Tris, pH 7.0

For test [1], the target named is T1, Gloeobacter rhodopsin (GR) (Gloeobacter violaceus, UniProt Q7NP59, S181G).
T1 construct: gene gll0198

Test [2] deals with T2, Gloeobacter rhodopsin (GR) (Gloeobacter violaceus, UniProt Q7NP59, P226G).
T2 construct: gene gll0198

Test [3] deals with T3, Gloeobacter rhodopsin (GR) (Gloeobacter violaceus, UniProt Q7NP59, S221G).
T3 construct: gene gll0198

In test [4] the target is T4, Gloeobacter rhodopsin (GR) (Gloeobacter violaceus, UniProt Q7NP59, T179G/T182G/F185G).
T4 construct: gene gll0198

Test [5] addresses T5, Gloeobacter rhodopsin (GR) (Gloeobacter violaceus, UniProt Q7NP59, I227G).
T5 construct: gene gll0198

Test [6] addresses T6, Gloeobacter rhodopsin (GR) (Gloeobacter violaceus, UniProt Q7NP59, T179G/T182G).
T6 construct: gene gll0198

The target of test [7] is T7, Gloeobacter rhodopsin (GR) (Gloeobacter violaceus, UniProt Q7NP59, F185G).
T7 construct: gene gll0198

Test [8] deals with T8, Gloeobacter rhodopsin (GR) (Gloeobacter violaceus, UniProt Q7NP59).
T8 construct: gene gll0198
T8 sequence (Q7NP59 1-298): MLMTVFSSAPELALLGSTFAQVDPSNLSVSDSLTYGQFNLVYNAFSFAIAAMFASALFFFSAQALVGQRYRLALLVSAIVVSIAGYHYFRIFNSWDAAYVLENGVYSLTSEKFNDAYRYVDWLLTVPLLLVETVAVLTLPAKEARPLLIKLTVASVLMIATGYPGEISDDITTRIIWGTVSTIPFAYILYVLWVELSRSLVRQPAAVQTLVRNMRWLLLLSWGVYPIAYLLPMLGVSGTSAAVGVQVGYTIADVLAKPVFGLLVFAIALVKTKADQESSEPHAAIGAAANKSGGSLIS

For test [9], the target named is T9, Gloeobacter rhodopsin (GR) (Gloeobacter violaceus, UniProt Q7NP59, G178W).
T9 construct: gene gll0198

The target of test [10] is T10, Gloeobacter rhodopsin (GR) (Gloeobacter violaceus, UniProt Q7NP59, T179G).
T10 construct: gene gll0198

Test [11] deals with T11, Gloeobacter rhodopsin (GR) (Gloeobacter violaceus, UniProt Q7NP59, P226G/I227G).
T11 construct: gene gll0198
T11 sequence (Q7NP59 entry or part of it P226G/I227G): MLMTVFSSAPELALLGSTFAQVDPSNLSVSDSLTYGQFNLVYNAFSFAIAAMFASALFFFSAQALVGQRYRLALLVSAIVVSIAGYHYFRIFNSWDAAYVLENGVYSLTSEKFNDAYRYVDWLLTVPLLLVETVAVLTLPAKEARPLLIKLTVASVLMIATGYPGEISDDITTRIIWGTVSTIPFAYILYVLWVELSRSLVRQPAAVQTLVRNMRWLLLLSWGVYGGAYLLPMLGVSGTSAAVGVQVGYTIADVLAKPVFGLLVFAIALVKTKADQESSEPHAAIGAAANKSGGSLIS

T4 sequence (Q7NP59 entry or part of it T179G/T182G/F185G): as the sequence (Q7NP59 entry or part of it P226G/I227G) above, with T179G, T182G, F185G, G226P, G227I counted along it
T7 sequence (Q7NP59 entry or part of it F185G): as the sequence (Q7NP59 entry or part of it P226G/I227G) above, with F185G, G226P, G227I counted along it
T10 sequence (Q7NP59 entry or part of it T179G): as the sequence (Q7NP59 entry or part of it P226G/I227G) above, with T179G, G226P, G227I counted along it
T6 sequence (Q7NP59 entry or part of it T179G/T182G): as the sequence (Q7NP59 entry or part of it P226G/I227G) above, with T179G, T182G, G226P, G227I counted along it
T9 sequence (Q7NP59 entry or part of it G178W): as the sequence (Q7NP59 entry or part of it P226G/I227G) above, with G178W, G226P, G227I counted along it
T1 sequence (Q7NP59 entry or part of it S181G): as the sequence (Q7NP59 entry or part of it P226G/I227G) above, with S181G, G226P, G227I counted along it
T5 sequence (Q7NP59 entry or part of it I227G): as the sequence (Q7NP59 entry or part of it P226G/I227G) above, with G226P counted along it
T2 sequence (Q7NP59 entry or part of it P226G): as the sequence (Q7NP59 entry or part of it P226G/I227G) above, with G227I counted along it
T3 sequence (Q7NP59 entry or part of it S221G): as the sequence (Q7NP59 entry or part of it P226G/I227G) above, with S221G, G226P, G227I counted along it

On to `CC1=C(/C=C/C(C)=C/C=C/C(C)=C/C=C/C=C(C)/C=C/C=C(C)/C=C/C2=C(C)C(=O)CCC2(C)C)C(C)(C)CCC1=O` [canthaxanthin], for which the carotenoid/retinal binding ratio entry in test [1] was “All mutants critical affect the carotenoid binding but not S181G”; in test [2] it was ~ 48%; in test [3], ~ 69%; in [4], ~ 5%; in test [5], ~ 42%; in test [6], ~ 19%. Further, the carotenoid/retinal binding ratio in test [7] is on record as ~ 37%; in [8] it was ~ 87%; in [10], ~ 41%; in test [11], ~ 29%. Further, the carotenoid binding entry in [9] is “with retinal and carotenoid showed no carotenoid binding in the absorption spectrum”.
